# Reference: patent US20110178072A1, “STEREOSPECIFICITY OF METHYLSULFINYL REDUCTION” (priority 2008, published 2011)
# Legend:
# mouse MsrB2 = mouse MsrB2 (Mus musculus, UniProt Q78J03); assay: Reduction of methylsulfinyl compounds by mouse MsrB2 (HPLC/GC analysis); format: biochemical; details: in the presence of DTT
# Experimental: (§1) The isothiocyanate group in R,S-sulforaphane reacts with sulfhydryls to form conjugated compounds. First, the compound was treated with excess DTT (which has two free sulfhydryl groups) to conjugate the isothiocyanate group of R,S-sulforaphane or S-sulforaphane with the sulfhydryl group of DTT and the resulting adducts were then used as substrates for mouse MsrA and mouse MsrB2. The reduction of the DTT-sulforaphane adduct was analyzed using HPLC analysis of the adduct with buffer (as control; FIG. 12A), mouse MsrB2 (FIG. 12B), and mouse MsrA (FIG. 12C). The arrows indicate the migration of the DTT-erucin adduct. […] FIG. 13 illustrates the HPLC analysis of the DTT-R-sulforaphane adduct incubated with buffer (as control) (FIG. 13A), mouse MsrA (FIG. 13B), and mouse MsrB2 (FIG. 13C). Again, the arrows show the migration of the DTT-erucin adduct.
# (§2) Mesoridazine, which has a mild effect on treating schizophrenia, was examined to determine its reduction by yeast fRMsr, mouse MsrB2, and mouse MsrA (FIG. 14). The peak of m/z 387.6 corresponds to the molecular weight of mesoridazine and the peak of m/z 371.6 corresponds to the molecular weight of thioridazine. FIG. 14B details the HPLC analysis of mesoridazine incubated with mouse MsrB2 and DTT. FIG. 14C provides the HPLC analysis of mesoridazine incubated with yeast fRMsr and DTT. FIG. 14D illustrates the specific activities of various Msrs for the reduction of mesoridazine (left to right): mouse MsrA in the presence of DTT as a reductant, mouse MsrA in the presence of the thioredoxin reducing system, mouse MsrB2 in the presence of DTT, and yeast fRMsr in the presence of DTT.
# (§3) The reduction of triclabendazole sulfoxide was examined. This compound has been used to treat liver fluke, Fasciola hepatica and Fasciola gigantica, in sheep, goat, and cattle as a form of triclabendazole. Triclabendazole can be metabolized to several different forms including triclabendazole sulfoxide, which is an oxidized form of methylsulfide group, in biological systems. FIG. 15A provides an HPLC analysis of triclabendazole sulfoxide incubated with mouse MsrA and DTT. The peak of m/z 375.2 and 377.2 correspond to the molecular weight of triclabendazole sulfoxide and the peak of m/z 359.2 and 361.2 correspond to the molecular weight of triclabendazole. FIG. 15B illustrates an HPLC analysis of triclabendazole sulfoxide incubated with mouse MsrB2 and DTT. FIG. 15C details an HPLC analysis of triclabendazole sulfoxide incubated with yeast fRMsr and DTT. FIG. 15D illustrates the specific activities of various Msrs for the reduction of triclabendazole sulfoxide (left to right): mouse MsrA in the presence of DTT as a reductant, mouse MsrA in the presence of the thioredoxin reducing system, mouse MsrB2 in the presence of DTT, and yeast fRMsr in the presence of DTT.
# Another methylsulfinyl-containing drug, sulmazole, was tested as a substrate for Msrs. This drug is pharmacologically active as a cardiotonic agent and is a phosphodiesterase inhibitor. FIG. 16A details an HPLC analysis of sulmazole incubated with mouse MsrA and DTT. The peak of m/z 288.3 corresponds to the molecular weight of sulmazole and the peak of m/z 272.3 corresponds to the molecular weight of reduced form of sulmazole. FIG. 16B illustrates an HPLC analysis of sulmazole incubated with mouse MsrB2 and DTT. FIG. 16C provides an HPLC analysis of sulmazole incubated with yeast fRMsr and DTT. […]
# mouse MsrA = biological target: T1, mouse MsrA (Mus musculus, UniProt Q9D6Y7); assay: Reduction of methylsulfinyl compounds by mouse MsrA (HPLC/GC analysis); format: biochemical; details: DTT as a reductant
# T1 sequence (Q9D6Y7 21-233): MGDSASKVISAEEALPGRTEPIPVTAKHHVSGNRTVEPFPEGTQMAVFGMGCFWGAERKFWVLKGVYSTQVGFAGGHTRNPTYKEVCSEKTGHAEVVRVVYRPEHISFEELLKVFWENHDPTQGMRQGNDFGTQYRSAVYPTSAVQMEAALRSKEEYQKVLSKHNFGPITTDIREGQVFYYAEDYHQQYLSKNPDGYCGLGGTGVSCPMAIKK
# Experimental: as §1, §2, §3
# Another methylsulfinyl-containing drug, sulmazole, was tested as a substrate for Msrs. This drug is pharmacologically active as a cardiotonic agent and is a phosphodiesterase inhibitor. FIG. 16A details an HPLC analysis of sulmazole incubated with mouse MsrA and DTT. The peak of m/z 288.3 corresponds to the molecular weight of sulmazole and the peak of m/z 272.3 corresponds to the molecular weight of reduced form of sulmazole. FIG. 16B illustrates an HPLC analysis of sulmazole incubated with mouse MsrB2 and DTT. FIG. 16C provides an HPLC analysis of sulmazole incubated with yeast fRMsr and DTT. FIG. 16D details the specific activities of various Msrs for the reduction of sulmazole (left to right): mouse MsrA in the presence of DTT as a reductant, mouse MsrA in the presence of the thioredoxin reducing system, mouse MsrB2 in the presence of DTT, and yeast fRMsr in the presence of DTT.
# DMSO, which is used as a preservative for stem cells, solvent for drugs, and a drug itself with anti-inflammatory and free radical scavenging properties, was studied for its reduction by Msrs. FIG. 17A details a GC analysis of DMSO incubated with mouse MsrA and DTT. […]
# yeast fRMsr = biological target: T2, yeast fRMsr (Saccharomyces cerevisiae, UniProt P36088); assay: Activity assay of purified recombinant yeast fRMsr towards free Met sulfoxides (HPLC, OPA derivatization); format: biochemical, S. cerevisiae; details: recombinant His-tagged yeast fRMsr
# T2 construct: His-tag (C); made in house; host or cells: E. coli BL21 (DE3), pET21b
# T2 sequence (P36088 1-180): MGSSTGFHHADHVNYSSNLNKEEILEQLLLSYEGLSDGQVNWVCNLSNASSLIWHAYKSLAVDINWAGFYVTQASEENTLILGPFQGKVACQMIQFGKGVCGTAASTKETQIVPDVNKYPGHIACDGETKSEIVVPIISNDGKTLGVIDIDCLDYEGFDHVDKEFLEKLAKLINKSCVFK
# Excerpt: Cloning and expression of yeast fRMsr—Characterization of S. cerevisiae fRMsr (YKL069W) is described in Le, D. T., et al. (2009) Functional analysis of free methionine-R-sulfoxide reductase from Saccharomyces cerevisiae. J Biol Chem., 284(7), 4354-4364. Briefly, a yeast fRMsr cDNA, which encodes a protein homologous to fRMsr from E. coli, was amplified from S. cerevisiae genomic DNA and subcloned into pET21b vector (Novagen) using primers 5′-AAACATATGATGGGCTCATCAACCGGGTTTC-3′ (sense; SEQ ID NO:1) and 5′-AAGCGGCCGCGACACATGATTTATTAATTAATTTAGCAAG-3′ (antisense; SEQ ID NO:2). After transformation into BL21 (DE3) E. coli, the subcloned sequence was verified by DNA sequencing. Cells with the plasmid in 500 mL LB medium containing 100 μg/mL ampicillin were grown until OD600 reached 0.6-0.8, followed by addition of IPTG to 0.3 mM. Protein expression was at 30° C. for 4 hours, followed by harvesting cells by centrifugation at 4,000 rpm for 5 minutes. Cells were washed with PBS and stored at −70° C. until use.
# To purify the protein, a cell pellet was dissolved in resuspension buffer (Tris-HCl, pH 7.5, 15 mM imidazole, 300 mM NaCl), and PMSF was added to a final concentration of 0.5 mM. After sonication, the supernatant was collected by centrifugation at 8,000 rpm for 30 minutes. The supernatant was loaded onto a cobalt Talon resin (Clontech) pre-equilibrated with resuspension buffer. Following washing with the same buffer, the protein was eluted with elution buffer (Tris-HCl, pH 7.5, 300 mM imidazole, 300 mM NaCl). Fractions containing yeast fRMsr were pooled together and dialyzed overnight against PBS in a dialysis cassette (Pierce).
# Activity assays of fRMsr—Reaction mixture (40 μL) included 50 mM DTT, 1 mM substrate (Met-RO or Met-SO), and purified enzyme or cell lysate prepared by treatment with CelLytic™M cell lysis reagent (Sigma). 20 μL of the reaction mixture was mixed with 2 μL of TCA and subjected to OPA derivatization as described above and then injected onto the column to measure endogenous Met level in the samples. An additional 20 μL from the same original reaction mixture were incubated at 37° C. for 30 minutes and then subjected to OPA derivatization by the same procedure using TCA. After derivatization of the sample (2-5 μL) by adding OPA solution to 100 μL as a final volume, 50 μL of the mixture were subjected to an HPLC separation as described above.
# selenoproteins = assay: 75Se metabolic labeling of SK-Hep1 cells grown on Met and Met sulfoxide media; format: cell-based, human; details: 0.1 mM of each amino acid
# Experimental: ^75 Se Metabolic labeling—SK-Hep1 cells were plated in 6-well plates at 7.5×10^4 cells/well in 1.5 mL of regular DMEM medium. After 24 hours, cells were washed with PBS and the medium was changed to modified DMEM media containing Met, Met-SO, Met-RO, or Met-RSO (0.1 mM of each amino acid). 0.01 mCi of freshly neutralized [^75Se]selenious acid (specific activity 1,000 Ci/mmol, University of Missouri Research Reactor) was added in each well at 48 hours after changing the medium and cells were incubated at 37° C. for 24 hours in 5% CO2 atmosphere, followed by harvesting the cells. Cell extracts (30 μg of total protein) were electrophoresed on 10% Bis-Tris gels and transferred onto PVDF membranes (Invitrogen). The ^75Se radioactivity pattern was visualized by using a PhosphorImager (GE Health Care).
# [1] = system: MsrA-knockdown SK-Hep1 cells; assay: Growth of MsrA-knockdown SK-Hep1 cells on Met and Met sulfoxide media; format: cell-based, human; details: 0.1 mM, 96 hours
# Experimental: Proliferation Assay—Cell growth was quantified using colorimetric MTS assay (Promega). Cells in regular DMEM medium were plated in 96-well plates at 5×10^3 cells/well, washed with PBS, and specialized DMEM media were added that contained Met, Met-SO, Met-RO, or Met-RSO 24 hours after plating. To assay for cell proliferation, a tetrazolium compound [3-(4,5-dimethylthiazol-2-yl)-5-(3-carboxymethoxyphenyl)-2-(4-sulfophenyl)-2H-tetrazolium, inner salt; MTS] and an electron coupling reagent (phenazine methosulfate; PMS) were mixed according to the manufacturer's protocol and then 20 μL of the mixture were added to 100 μL of phenol red-excluded media that further replaced cell culture media. After 90 minutes of incubation at 37° C. in the atmosphere of 5% CO2, cell proliferation was measured at indicated time periods from 0 to 96 hours at 450 nm in a plate reader. Direct counting of viable cells using 0.2% trypan blue was done in 6-well plates. Knockdown of MsrA in SK-Hep1 cells by siRNA—Double stranded siRNAs (Dharmacon) for targeting human MsrA mRNA were used to knockdown this gene in SK-Hep1 cells. Cells were transfected with siRNA by using DharmaFECT™ Transfection Reagent (Dharmacon) according to the manufacturer's protocol. Proliferation of these cells was assayed 60 hours after transfection in comparison with control transfected cells.
# SK-Hep1 cells = assay: Growth and morphology of SK-Hep1 cells in Met-free DMEM supplemented with Met or Met sulfoxides (MTS proliferation assay, microscopy); format: cell-based, human; details: Met-free DMEM supplemented with 0.1 mM of the compound
# Experimental: Cell culture—SK-Hep1 (ATCC: HTB-52™) and fRMsr-transfected SK-Hep1 cells were cultured in DMEM or Met-free DMEM (GIBCO) media, supplemented with 0.1 mM Met, 0.1 mM Met-RO, 0.1 mM Met-SO, or 0.1 mM Met-RSO. […] Thus, 0.1 mM Met sulfoxides were used in the experiments described below. Cell culture experiments, with the exception of a proliferation assay, were carried out in 6-well plates, and cells were maintained at 37° C. in a 5% CO2 atmosphere. Proliferation Assay—Cell growth was quantified using colorimetric MTS assay (Promega). Cells in regular DMEM medium were plated in 96-well plates at 5×10^3 cells/well, washed with PBS, and specialized DMEM media were added that contained Met, Met-SO, Met-RO, or Met-RSO 24 hours after plating. To assay for cell proliferation, a tetrazolium compound [3-(4,5-dimethylthiazol-2-yl)-5-(3-carboxymethoxyphenyl)-2-(4-sulfophenyl)-2H-tetrazolium, inner salt; MTS] and an electron coupling reagent (phenazine methosulfate; PMS) were mixed according to the manufacturer's protocol and then 20 μL of the mixture were added to 100 μL of phenol red-excluded media that further replaced cell culture media. After 90 minutes of incubation at 37° C. in the atmosphere of 5% CO2, cell proliferation was measured at indicated time periods from 0 to 96 hours at 450 nm in a plate reader. Direct counting of viable cells using 0.2% trypan blue was done in 6-well plates. Microscopy—A Nikon TE-300 Widefield Microscope was used to prepare images of SK-Hep1 cells grown on different Met and Met sulfoxide media. Microscopy analyses were carried out in the University of Nebraska Microscopy Core Facility.
# CBS = assay: Western blot analysis of CBS in SK-Hep1 cells grown on Met and Met sulfoxide media; format: cell-based, human; details: SK-Hep1 cells, 0.1 mM
# Experimental: Analysis of SK-Hep1 and fRMsr-transfected SK-Hep1 cells—SK-Hep1 and fRMsr-transfected SK-Hep1 cells were plated in 6-well plates at 7.5×10^4 cells/well in regular DMEM medium. The medium was changed to Met-free DMEM supplemented with either Met or individual Met sulfoxides at 24 hours after plating. Cells were then collected every 24 hours until 96 hours. Protein concentration was measured by the Bradford assay and the samples were probed by standard immunoblot assays with polyclonal MsrA (kindly provided by Bertrand Friguet), cystathionine beta synthase (CBS) (kindly provided by Ruma Banerjee), and activating transcription factor 3 (ATF3) (Santa Cruz Biotechnology) antibodies.
# mouse MsrB2, sequence (Q78J03 43-175): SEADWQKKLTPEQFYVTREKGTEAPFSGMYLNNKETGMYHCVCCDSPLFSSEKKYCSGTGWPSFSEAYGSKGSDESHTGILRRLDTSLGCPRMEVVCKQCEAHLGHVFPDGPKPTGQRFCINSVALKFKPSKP
SMILES,Reduction by mouse MsrB2 (mouse MsrB2),Reduction by mouse MsrA (mouse MsrA),Activity of recombinant yeast fRMsr protein towards the substrate (yeast fRMsr),Selenoprotein patterns (75Se labeling) (selenoproteins),Growth of SK-Hep1 cells (SK-Hep1 cells),also measured
C[S@@+]([O-])CCCCNC(=S)SCC(O)C(O)CS (stereo partly drawn) [DTT-R-sulforaphane adduct],cannot be reduced,cannot be reduced,–,–,–,–
CN(C)c1ccc(/N=N/c2ccc(S(=O)(=O)N[C@@H](CC[S@@+](C)[O-])C(=O)O)cc2)cc1 [dabsyl-Met-RO],–,–,inactive,–,–,–
"CSCC[C@H](N)C(=O)O [Met, methionine]",–,–,–,No difference was observed,grew best,Growth of MsrA-deficient cells [1]: still supported their growth; Expression of CBS (CBS): maintained stable CBS levels
CN(C)c1ccc(N=Nc2ccc(S(=O)(=O)N[C@@H](CC[S@+](C)[O-])C(=O)O)cc2)cc1 [dabsyl-Met-SO],–,–,inactive,–,–,–
C[S@+]([O-])CCCCNC(=S)SCC(O)C(O)CS (stereo partly drawn) [DTT-S-sulforaphane adduct],not by mouse MsrB2,can be reduced,–,–,–,–
"C[S+]([O-])CC[C@H](N)C(=O)O (stereo partly drawn) [Met-RSO, L-Met-R,S-sulfoxide]",–,–,–,No difference was observed,could also proliferate,–
